Measured values from patent US20180264191A1, “SYSTEMS AND METHODS FOR NEURAL DRUG DELIVERY AND MODULATION OF BRAIN ACTIVITY” (priority 2017, published 2018).

Legend:
[1] = tested on: local neuronal activity in the neocortex; test: Unit firing and local field potential recording with serial infusions through L-MiNDS in awake head-fixed monkey; assay type: in vivo, rhesus macaque (Macaca mulatta); settings: for rate of detected spike activity (local unit firing): muscimol 2 mg/ml in aCSF, 500 nl at 100 nl/min for 5 mins
Description: The functionality of the system (specifically, the L-MiNDS) was confirmed in a large, awake behaving animal model, the rhesus macaque (macacca mulatta) monkey. The L-MiNDS was used to modulate and monitor local neuronal activity in the neocortex of a head-fixed monkey through serial infusions of aCSF and muscimol, which respectively preserve and inhibit baseline unit firing activity, as depicted in FIG. 21A. The 1st vertical line on left indicates the start of aCSF infusion (at 20 mins) and the 2nd vertical line denotes the muscimol infusion (at 63.7 mins). The impedance measurement of the W-electrode was 1.5 MΩ in brain and at pre-implantation in saline was 2 MΩ. Modulation of neuronal firing activity was monitored by recording signals at the MiNDS electrode adjoining the infusion ports. […] Then, aCSF was infused for 5 mins 20 s at an infusion rate of 100 nl/min. This control infusion had minimal effect on the local firing rate and unit waveform during and after the infusion. Muscimol was then infused at the same location for 5 mins at infusion rate of 100 nl/min. […] Vertical and horizontal bars denote 10 μV and 2 ms, respectively.
A second experiment was conducted targeting deeper layers of the neocortical region (i.e., dorsal bank of the cingulate cortex) to determine if recovery of the reduced neural activity through an additional infusion of aCSF could be induced at this adjoining site. This larger infusion of aCSF was indeed effective in reversing the inhibitory effect of muscimol, as shown by the observation of an increasing frequency of spikes with waveforms closely resembling those found during the pre-muscimol period, as depicted in FIGS. 23A-23C. In particular, the 1st vertical line on left in FIG. 23A denotes the start of aCSF infusion (at 20 mins), the second vertical line represents the start of muscimol infusion (at 43 mins), and the third vertical line denotes the start of aCSF infusion (at 92 mins). In FIG. 23Cm vertical and horizontal bars denote 10 μV and 2 ms, respectively. […] Compared to prior work, this is the first system that allows serial infusion of multiple distinct solutions to be delivered in a focal, independent manner in a NHP. The system's integrated electrode can also be used to record local field potentials (LFPs), as shown in FIGS. 24A and 24B, which may be important for clinical applications that may require chronic recording from a fixed brain location. For example, pathological beta-band LFP in Parkinson's disease and/or epileptic discharges in epilepsy could be recorded from the chronically integrated electrode to track and treat dysfunction in future applications. In FIG. 24A, two curves for each period represent 95% confidence intervals. Each pair of curves correspond to signals averaged over 10 mins periods as labeled in the legend at the top right of each plot. […] Alpha (5-11 Hz) and beta (11-30 Hz) band power fluctuate without correlation to the infusions. The prominent power at 60 Hz is due to coupling of power mains noise. […]
Solutions used for infusion through the MiNDS were aCSF (artificial cerebrospinal fluid, Tocris Biosciences) and muscimol (2 mg/ml in aCSF, Sigma-Aldrich). The MiNDS and guide cannula were sonicated in a detergent solution (Alconox, Inc.), rinsed with water, and then sonicated and soaked in 70% ethanol followed by water until they were ready for implantation. […]

substantia nigra (SN) = test: Behavioral study: rotations after unilateral infusion into the substantia nigra through S-MiNDS with iPrecio pumps; assay type: in vivo; settings: rat
Description: The capability of interfacing the system with deep brain structures to remotely control behavior was tested. In experiments in rats, the S-MiNDS was implanted in the SN and was connected to two implanted iPrecio pumps, containing either saline or muscimol. Unilateral delivery of muscimol to the SN is known to evoke preferential ipsilateral rotation, reflecting a hemiparkinsonian state. […] These studies were performed multiple times on each of multiple animals. This illustrates the ability of system to repeatedly and reproducibly deliver small volumes of drug to effect a reversible behavioral change.
A similar protocol as described above was used to implant the MiNDS with the iPrecio pumps. Rats were anesthetized, and their heads were shaved and disinfected. A longer incision was made to accommodate the insertion of the pumps. As aforementioned, the MiNDS burr hole was made 5 mm posterior to the bregma and 2.5 mm lateral to the midline, and a support screw burr hole was made 3 mm posterior and 2 mm lateral to the bregma, on the opposite side. The screw was implanted, such that 1 mm protruded beneath the skull. A subcutaneous cavity for the pump was made by blunt dissection, and the pump was inserted through the incision. The MiNDS probe was implanted and cemented to the skull using C&B Metabond adhesive (Parkell Inc., Edgewood N.Y.) and Orthojet dental cement (Lange Dental, Wheeling, Ill. USA), and the incision was closed using 5-0 monofilament non-resorbable suture and 3M tissue glue. Animals were closely observed during the recovery period and given analgesics and wet food. By 1 week post-surgery, in all cases animals were ambulatory and otherwise healthy. Animals implanted with pumps were used for the behavioral studies described below. […]
A rat was implanted with the MiNDS and two pumps pre-loaded and flushed with either saline or muscimol, as described above. The animal was placed within the dish and recorded over the course of 5 hrs. […]
Videos were imported into Ethovision, where they were analyzed for ipsilateral and contralateral rotations over time. […]

hippocampal (CA1) unit = test: Acute tetrode recording with local micro-injection through MiNDS in anesthetized rats; assay type: in vivo; settings: anesthetized rat
Description: Acute electrophysiological recordings and micro-injections were performed in anesthetized rats to test the system with a tetrode W electrode. […] The channel impedance values of the tetrode electrode (T-1, T-2, T-3, T-4) were 430, 370, 440, and 370 kΩ. […] The mean of the action potentials recorded from this unit was stable during the experiment (i.e. before first saline infusion, before first and second muscimol infusions), confirming that the unit was present during the trial, as shown in FIGS. 18A-C. […] Peak 1 and Peak 2 are the maximal value of waveforms measured by T-1, T-2, respectively. The projections of the peak values calculated from each recorded action potential are shown in FIG. 18C, reflecting the cluster-cutting used to isolate signals coming from different neurons. […]
The dura was removed and the device was lowered into the brain to a depth of 2.5 mm and a location with unit activity was identified. The local neural signals were recorded with Open Ephys GUI software. Prior to drug infusion, the local signals were recorded for 30 mins to ensure stable spikes were located. After the baseline recording, 150 nl of saline were infused into the site at a flow rate of 100 nl/min and the activity was recorded for another 30 mins. […] Recording was recorded for another 30 mins post muscimol infusion. […]

[2] = 1.67 μl of muscimol (0.2 mg/ml) into SN, 180° turns

SMILES: NCc1cc(=O)[nH]o1 [muscimol]
- LFP power for alpha frequencies ([1]; after muscimol infusion): persists
- LFP power for broadband, beta, and gamma frequency ranges ([1]; after muscimol infusion): decreases significantly
- LFP broadband power from 30-100 Hz ([1]; after muscimol infusion, 10 mins intervals): decreases immediately following muscimol infusion
- rate of detected spike activity (local unit firing) [1]: immediately suspended activity
- rate of detected spike activity (local unit firing) ([1]; listed as Muscimol): immediately decreased the rate of detected spike activity
- counter-clockwise rotations (substantia nigra (SN); [2]): remained the same
- increase in the number of clockwise rotations (substantia nigra (SN); [2]): 52 fold
- parkinsonian behavior (preferential ipsilateral rotation) (substantia nigra (SN); remotely controlled infusion of 1.67 μl of muscimol (0.2 mg/ml) into SN): reliably induced
- firing rate of hippocampal (CA1) unit after first muscimol injection (hippocampal (CA1) unit; local infusion via iPrecio pump, first muscimol infusion at 60 mins): a slow decrease of the firing rate occurred
- rate of detected spike activity of hippocampal (CA1) unit after second muscimol injection (hippocampal (CA1) unit; second muscimol infusion at 90 mins): abolished the rate of detected spike activity
